Experimental data taken from patent US7416724B2, “Diagnosis and treatment of diseases arising from defects in the tuberous sclerosis pathway” (The Regents of the University of Michigan, priority 2002, dated 2008).
Entries after “also recorded” stand apart in the source; their conditions may differ. Like-named read-outs stand apart in the source and are kept apart here.

Experiments:
[1] = test system: S6K; test: Phosphorylation of S6K, immunoblot with anti-phospho S6K antibody; assay type: cell-based; details: for phosphorylation of S6K on T389: endogenous S6K
Source text: (§1) Anti-S6K, anti-phospho S6K, anti-mTOR, anti-phospho mTOR, anti-Akt, anti-phospho Akt, antiphospho 4EBP-1 and anti-phospho ERK antibodies were from Cell Signalling Inc. Anti-TSC2 and anti-Myc antibodies were from Santa Cruz Biotechnology (Santa Cruz, Calif.). Anti-HA and anti-Flag antibodies were from Covance (Princeton, N.J.) and Sigma (St Louis, Mo.), respectively. HA-tagged S6K1 (II) and GST-S6 constructs were obtained from J. Blenis (Columbia Univ., NY, N.Y.). […] All other DNA constructs, including H-RasV12, PTEN, PTEN-CS, Akt, Akt-KM, Flag-ubiquitin and Flag-4E-BP1, were laboratory stock. All mutant constructs of TSC2 were created by PCR mutagenesis and verified by DNA sequencing. LY294002 was from Calbiochem (San Diego, Calif.); phosphatase was from New England Biolabs (Beverly, Mass.). MG132 was from the Peptide Institute. Cycloheximide and wortmannin were from Sigma. D-PBS was from Gibco. Rapamycin was from Cell Signalling.
(§2) HEK293 cells were seeded and maintained in Dulbecco's modified Eagle's medium (DMEM) containing 10% fetal bovine serum (FBS). Transfection was performed in serum-free conditions using Lipofectamine reagent (Invitrogen, Carlsbad, Calif.) in accordance with the manufacturer's instructions. In brief, 4 h after transfection, the cells were recovered in DMEM containing 10% FBS for 16 h and then starved for […]. Cells were then lysed in lysis buffer (10 mM Tris-HCl at pH 7.5, 100 mM sodium chloride, 1% NP-40, 1% Triton X-100, 50 mM sodium fluoride, 2 mM EDTA, 1 mM phenyl methylsulphonyl fluoride, 10 g ml^−1 leupeptin and 10 g ml^−1 aprotinine) and immunoprecipitated with the indicated antibodies and protein G-Sepharose beads. Immunocomplexes were analyzed by SDS-polyacrylamide gel electrophoresis (PAGE).

[2] = test system: 4EBP1; test: Phosphorylation of 4EBP1, immunoblot; assay type: cell-based
Source text: as §1, §2

[3] = test system: S6; test: Phosphorylation of S6, immunoblot; assay type: cell-based; details: FIG. 8C
Procedure: as §2

[4] = test system: mTOR; test: Phosphorylation of mTOR at Ser 2448, immunoblot with anti-phospho-mTOR antibody; assay type: cell-based; details: 25 mM, FIG. 8C
Source text: as §1
(§3) HEK293 cells were seeded and maintained in Dulbecco's modified Eagle's medium (DMEM) containing 10% fetal bovine serum (FBS). Transfection was performed in serum-free conditions using Lipofectamine reagent (Invitrogen, Carlsbad, Calif.) in accordance with the manufacturer's instructions. […] Immunocomplexes were analyzed by SDS-polyacrylamide gel electrophoresis (PAGE).

[5] = test system: Akt; test: Phosphorylation of Akt, immunoblot; assay type: cell-based
Source text: as §1, §3

[6] = test system: AMPK; test: AMPK activation (T172 phosphorylation); assay type: cell-based; details: 25 mM
[7] = test system: TSC2; test: TSC2 mobility shift on SDS-PAGE; assay type: cell-based; details: for mobility of TSC2 / 2-DG induced mobility shift: HEK293 cells, 10 μM, added 30 minutes before 2-DG, FIG. 11C
Procedure: as §2

[8] = test system: TSC2; test: In vivo 32P-labelling and two-dimensional phosphopeptide mapping of TSC2; assay type: cell-based, rat
Procedure: HEK293 cells were cotransfected with HA-tagged TSC2, Myc-tagged TSC1 and the indicated plasmids. Cells were phosphate- and serum-starved for 4 h before incubation with 0.25 mCi ml^−1 32P-orthophosphate (ICN) for 4 h.
Cells were washed once with ice-cold PBS and lysed. HA-tagged TSC2 was immunoprecipitated, resolved by SDS-PAGE and transferred to a PVDF membrane. Phosphorylated TSC2 was visualized by autoradiography and phosphopeptide mapping was then performed. In brief, the phosphorylated TSC2 bands were excised, fixed in methanol and incubated in 500 1 of 0.5% polyvinylpyrrolidone-40 dissolved in 100 mM acetic acid for 30 min at 37° C. The sample were then digested with 20 g of TPCK-treated trypsin (Sigma) at 37° C. in 75 mM ammonium bicarbonate buffer at pH 8.0 containing 5% acetonitrile. After digestion, samples were dried under vacuum and suspended in 10 1 of water. Samples were spotted onto a cellulose plate and first dimensional electrophoresis was performed using 1% ammonium bicarbonate buffer at pH 8.9. The plates were separated by chromatography in the second dimension in chromatography buffer (n-butanol:pyridine:acetic acid:water; 20:24:6:30). The plates were dried and phosphopeptides were visualized by autoradiography.

[9] = test system: intracellular ATP; test: Intracellular ATP levels and AMP/ATP ratio; assay type: cell-based; details: cells treated with 25 mM
[10] = test system: AMPK and TSC2; test: Co-immunoprecipitation of AMPK and TSC2; assay type: cell-based
Procedure: as §2

[11] = test system: HEK293 cells; test: Cell size of HEK293 cells; assay type: cell-based; details: 12.5 mM 2-DG, TSC2 RNAi, or 20 nM rapamycin for 72 hours, FIG. 14D
[12] = test system: TSC1; test: TSC1 mobility on SDS-PAGE; assay type: cell-based; details: FIG. 11A
Procedure: as §2

[13] = test system: S6K; details: concentrations between 20 and 100 mM (Dennis et al., 2001); cited from earlier work
[14] = test system: 4EBP1; details: concentrations between 20 and 100 mM (Dennis et al., 2001); cited from earlier work
[15] = test system: AMPK; details: Corton et al., 1995; cited from earlier work
[16] = test system: intracellular ATP; details: concentrations between 20 and 100 mM (Dennis et al., 2001); cited from earlier work
[17] = test system: eukaryotic elongation factor 2 (eEF2); details: Horman et al., 2002; cited from earlier work
[18] = test system: S6K; details: Kimura et al., 2003; Krause et al., 2002; cited from earlier work
[19] = test system: LEF (TSC2-/- epithelial) cells; test: Cell death / apoptosis of LEF cells; assay type: cell-based; details: vector and wild type TSC2 expressing LEF cells
[20] = test system: S6K-dC104; test: Thr 389 phosphorylation and kinase activity of rapamycin-resistant mutant S6K-dC104; assay type: cell-based; details: FIG. 7a
Procedure: For the S6K assays, HEK293 cells grown in six-well plates were transfected with 10-20 ng HA-S6K constructs, with or without various plasmids, as indicated in the figures. HA-S6K was immunoprecipitated from serum-starved cells with an anti-HA antibody and analyzed by in vitro kinase assay using purified GST-S6 as a substrate (Pearson et al., EMBO J. 14, 5279-5287 (1995)).

[21] = EEF8 (TSC2-/-) fibroblasts, vector infected, FIG. 13C
[22] = EEF8 cells expressing wild type TSC2, FIG. 13C
[23] = depletion of cellular ATP, FIG. 8A

In the case of `O=CC[C@@H](O)[C@H](O)[C@H](O)CO` [2-DG, 2-deoxy-glucose], the “phosphorylation of S6K on T389” value ([1]; 25 mM, FIG. 8C) is reported as “effectively inhibited; also recorded: dephosphorylation”, the “S6K phosphorylation as a function of treatment time” value ([1]; 25 mM, time course, FIG. 8E) is reported as “concomitant dephosphorylation” and the S6K phosphorylation [1, 21] is reported as “caused little decrease”. For the same molecule, the S6K phosphorylation [1, 22] was “significantly decreased”, the “phosphorylation of S6K” value [1, 23] was “caused a dephosphorylation” and the 4EBP1 phosphorylation ([2]; EEF4 (TSC2+/+) cells, FIG. 10G) was “inhibition of phosphorylation”. For the same molecule, the 4EBP1 phosphorylation [2, 21] was “caused little decrease”, the 4EBP1 phosphorylation [2, 22] was “significantly decreased” and the “phosphorylation of endogenous 4EBP1” value ([2]; FIG. 8C) was “specifically inhibits; also recorded: dephosphorylation”. The “phosphorylation of 4EBP1” value [2, 23] was “caused a dephosphorylation”, the “phosphorylation of endogenous S6” value [3] was “dephosphorylation” and the “phosphorylation of mTOR S2448” value [4] was “inhibited; also recorded: dephosphorylation”. The Akt phosphorylation ([5]; 25 mM, FIG. 8C) was “had little effect”, the “T172 phosphorylation in AMPK” value ([6]; FIG. 8D) was “dramatic increase; also recorded: induces phosphorylation” and the “AMPK activation as a function of treatment time” value ([6]; time course, FIG. 8E) was “rapid AMPK activation”. The “mobility shift of TSC2” value ([7]; FIG. 11A) was “mobility shift”, the “phosphorylation of TSC2 phosphopeptides” value ([8]; 25 and 40 mM, FIG. 12A) was “enhanced phosphorylation of several peptides; also recorded: induce TSC2 phosphorylation on multiple spots” and the ATP levels ([9]; FIG. 8F) was “statistically significant reduction; also recorded: decreases”. For the same molecule, the AMP/ATP ratio ([9]; FIG. 8G) was “increases”, the “interaction between endogenous AMPK and overexpressed TSC2” value ([10]; FIG. 9D) was “enhances the interaction” and the “interaction between endogenous AMPK and TSC2 (co-immunoprecipitation)” value ([10]; HEK293 cells, FIG. 9A, B) was “interact preferentially; also recorded: enhanced; also recorded: stimulates the interaction”. The cell size [11] was “decreases cell size; also recorded: significantly decreased cell size”, the “mobility of TSC1” value [12] was “did not alter the mobility” and the S6K phosphorylation [13] was “inhibition”. For the same molecule, the 4EBP1 phosphorylation [14] was “inhibition”, the AMPK activation [15] was “activate AMPK” and the “reduction of intracellular ATP levels” value [16] was 20 to 50%. The “phosphorylation of eEF2” value [17] was “increase phosphorylation” and the S6K activity [18] was “inhibit S6K activity”.
In the case of `NC(=O)c1ncn([C@@H]2O[C@H](COP(=O)(O)O)[C@@H](O)[C@H]2O)c1N` [AICAR, 5-aminoimidazole-4-carboxyamide ribonucleotide], the AMPK activation [15] is given as “activate AMPK”, the “phosphorylation of eEF2” value [17] is given as “increase phosphorylation” and the S6K activity [18] is given as “inhibit S6K activity”.
In the case of `c1cc(-c2cnn3cc(-c4ccc(OCCN5CCCCC5)cc4)cnc23)ccn1` [Compound C], the “S6K dephosphorylation induced by glucose deprivation” value ([1]; FIG. 11F, listed as AMPK inhibitor) is reported as “significantly blocked; also recorded: partially blocks”, the “inhibitory effect of 2-DG on S6K phosphorylation” value ([1]; HEK 293 cells, FIG. 11E, listed as AMPK inhibitor) is reported as “significantly reversed; also recorded: blocks the 2-DG induced dephosphorylation” and the Akt phosphorylation ([5]; HEK 293 cells, AMPK inhibitor treatment) is reported as “had no effect”. The “mobility of TSC2 / 2-DG induced mobility shift” value [7] was “blocks the 2-DG induced mobility shift” and the “mobility of TSC2 / 2-DG induced mobility shift” value ([7]; listed as compound C) was “increased the mobility”.
In the case of `N#CC(C#N)=NNc1ccc(OC(F)(F)F)cc1` [FCCP], the S6K phosphorylation [1] is reported as “caused a decrease”, the “phosphorylation of S6K” value [1] is reported as “caused a dephosphorylation” and the “phosphorylation of 4EBP1” value [2] is reported as “caused a dephosphorylation”.
With `CC(=O)c1c(O)c(C)c(O)c(Cc2c(O)c3c(c(C(=O)/C=C/c4ccccc4)c2O)OC(C)(C)C=C3)c1O` [Rottlerin] the S6K phosphorylation ([1]; EEF4 (TSC2+/+) fibroblasts, FIG. 10F) was “caused a decrease”, the “phosphorylation of S6K” value [1, 23] was “caused a dephosphorylation” and the “phosphorylation of 4EBP1” value [2, 23] was “caused a dephosphorylation”.
For `COc1cc([C@@H]2c3cc4c(cc3[C@@H](O[C@@H]3O[C@@H]5CO[C@@H](C)O[C@H]5[C@H](O)[C@H]3O)[C@H]3COC(=O)[C@H]23)OCO4)cc(OC)c1O` [etoposide], the cell death [19] was “caused cell death”.
In the case of `OC[C@@H](O)[C@@H](O)[C@H](O)[C@H](O)CO` [mannitol], the “phosphorylation of S6K on T389” value ([1]; 25 mM, FIG. 8C) is reported as “had little effect” and the “phosphorylation of S6K” value ([1]; 100 mM, FIG. 8C) is reported as “significantly inhibited”.
With `CO[C@H]1C[C@@H]2CC[C@@H](C)[C@@](O)(O2)C(=O)C(=O)N2CCCC[C@H]2C(=O)O[C@H]([C@H](C)C[C@@H]2CC[C@@H](O)[C@H](OC)C2)CC(=O)[C@H](C)/C=C(\C)[C@@H](O)[C@@H](OC)C(=O)[C@H](C)C[C@H](C)/C=C/C=C/C=C/1C` [rapamycin] the “phosphorylation of Thr 389 in S6K-dC104” value [20] was “not inhibited”.
For “insulin: stimulus of the insulin-Akt pathway, used at 400 nM”, the “phosphorylation of Thr 389, Thr 421 and Ser 424 of S6K” value ([1]; FIG. 1b) was “stimulated” and the “phosphorylation of TSC2 phosphopeptides” value ([8]; insulin (400 nM), LY294002 or rapamycin (20 nM), FIG. 3c) was “slightly increased phosphorylation”.
